Data as given in ChEMBL document CHEMBL3301458, “MMV Malaria Box hERG screening”.
Activity calls are given as the source filed them. The rule behind the calls is not given here.

Tests used:
[1] = target: T1, hERG (Kv11.1, KCNH2) (Homo sapiens, UniProt Q12809); assay: in vitro
Description: MMV: Malaria Box compounds were tested for inhibition of the human ether a go-go related gene (hERG), Kv11.1 channel, using IonWorks 384-well patch clamp electrophysiology at 1.1uM (3 independent assay plates up to 12 cells per concentration).

[2] = target: T1, hERG (Kv11.1, KCNH2); assay: in vitro; remark: listed apart in the source
Description: MMV: Malaria Box compounds were tested for inhibition of the human ether a go-go related gene (hERG), Kv11.1 channel, using IonWorks 384-well patch clamp electrophysiology at 11.1uM (3 independent assay plates up to 12 cells per concentration).

T1 sequence (Q12809 whole entry): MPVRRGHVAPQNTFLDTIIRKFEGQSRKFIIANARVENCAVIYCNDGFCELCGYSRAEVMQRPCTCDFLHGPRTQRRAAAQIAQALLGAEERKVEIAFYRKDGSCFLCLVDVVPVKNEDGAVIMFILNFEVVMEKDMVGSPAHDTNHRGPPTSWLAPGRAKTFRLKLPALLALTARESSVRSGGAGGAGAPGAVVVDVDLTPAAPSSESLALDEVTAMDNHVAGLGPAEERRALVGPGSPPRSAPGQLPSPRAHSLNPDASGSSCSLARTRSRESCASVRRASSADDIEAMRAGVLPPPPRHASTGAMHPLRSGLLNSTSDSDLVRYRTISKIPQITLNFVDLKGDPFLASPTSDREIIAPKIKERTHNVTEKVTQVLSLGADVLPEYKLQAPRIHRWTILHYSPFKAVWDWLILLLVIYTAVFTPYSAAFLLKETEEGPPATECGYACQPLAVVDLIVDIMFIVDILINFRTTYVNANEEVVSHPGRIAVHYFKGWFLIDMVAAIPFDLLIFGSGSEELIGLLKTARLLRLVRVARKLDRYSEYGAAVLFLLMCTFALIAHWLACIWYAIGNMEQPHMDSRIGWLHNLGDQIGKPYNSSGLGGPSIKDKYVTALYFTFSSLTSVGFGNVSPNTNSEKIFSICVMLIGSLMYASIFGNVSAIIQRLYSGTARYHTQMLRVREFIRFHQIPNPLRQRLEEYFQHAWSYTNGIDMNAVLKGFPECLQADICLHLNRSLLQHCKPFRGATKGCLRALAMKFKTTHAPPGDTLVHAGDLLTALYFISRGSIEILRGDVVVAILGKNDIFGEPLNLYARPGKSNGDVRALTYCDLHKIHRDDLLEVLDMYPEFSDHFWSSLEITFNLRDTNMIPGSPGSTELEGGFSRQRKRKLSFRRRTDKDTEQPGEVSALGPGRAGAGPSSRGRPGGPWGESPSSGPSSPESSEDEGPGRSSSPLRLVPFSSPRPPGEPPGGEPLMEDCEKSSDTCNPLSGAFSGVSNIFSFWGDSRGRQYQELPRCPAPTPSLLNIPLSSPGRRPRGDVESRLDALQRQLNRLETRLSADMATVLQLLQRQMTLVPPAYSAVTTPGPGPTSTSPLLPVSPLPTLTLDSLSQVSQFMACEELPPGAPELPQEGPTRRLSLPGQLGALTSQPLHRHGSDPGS

| SMILES | inhibition at 1.1 µM [1] | inhibition at 11.1 µM [2] |
| --- | --- | --- |
| CCN1CCCC1CNc1[nH]cnc2c3cc(Cl)ccc3nc1-2 (centres undefined) | 6% | 29% |
| COc1ccc(-c2c(C)nn3c(N)c(C#N)cnc23)cc1OC | 11% | 11% (inactive) |
| COc1ccc2c(c1)C1(Nc3ccccc3-c3nc4ccccc4n31)C(=O)N2 (centres undefined) | 4% | 20% (inactive) |
| COc1cccc(Cn2c(Oc3ccccc3)nc3c2c(=O)n(C)c(=O)n3C)c1 | -4% | 26% |
| N=c1n(CCN2CCCCC2)c2ccccc2n1CC(=O)c1ccc(Cl)c(Cl)c1 | -13% | -1% (inactive) |
| CCOc1cc(CNC(C)C(O)c2ccccc2)cc(Cl)c1OCC (centres undefined) | 2% | 48% |
| C[n+]1c2ccccc2nc2ccc(NCCO)cc21 | 8% | 11% (inactive) |
| Nc1nc(Nc2cccc(F)c2)nc2ccccc12 | 11% | 59% (active) |
| CCOc1c(Cl)cc(CNCC(O)c2ccccc2)cc1OC (centres undefined) | 16% | 66% (active) |
| OC(CNCC1CCCO1)Cn1c2ccc(Cl)cc2c2cc(Cl)ccc21 (centres undefined) | 12% | 16% (inactive) |
| COc1ccc2nc(C)cc(Nc3ccccc3O)c2c1 | 18% | 57% (active) |
| COc1ccc(/C=C2/SC(=Nc3ccccc3)NC2=O)cc1 | 12% | 27% |
| COc1ccc(-c2nc(N3CCN(C(=O)C4CCCCC4)CC3)c3c4c(sc3n2)CCCC4)cc1 | 7% | 17% (inactive) |
| CCn1nc(-c2ccc(C(=O)OC)cc2)nc2c(=O)n(C)c(=O)nc1-2 | -2% | 9% (inactive) |
| CCOc1ccccc1CN1CCc2nc3cc(C(C)(C)C)nn3c(O)c2C1 | -1% | 58% (active) |
| O=C(NC1CCN(Cc2ccccc2)CC1)c1cc2nc(-c3ccc(Cl)s3)cc(C(F)(F)F)n2n1 | 21% | 60% (active) |
| Cc1sc(NC(=O)c2ccccc2)c(C(c2cccs2)N2CCN(c3ccccc3)CC2)c1C (centres undefined) | 9% | 9% (inactive) |
| Cc1sc(NC(=O)c2ccco2)c(C(c2cccnc2)N2CCC(Cc3ccccc3)CC2)c1C (centres undefined) | -12% | 9% (inactive) |
| CCOC(=O)c1c(C)n(-c2ccccc2)c2ccc(OC(=O)c3cc(OC)c(OC)c(OC)c3)cc12 | -6% | 11% (inactive) |

| SMILES | inhibition at 1.1 µM [1] | inhibition at 11.1 µM [2] |
| --- | --- | --- |
| COc1cc(C(=O)Nc2nc3c(cc4c5c(cccc53)CC4)s2)cc(OC)c1OC | 10% | 23% (inactive) |
| Cc1cc(N2CCCC2)nc(Nc2ccc(NC(=O)CCc3ccccc3)cc2)n1 | 9% | 116% (active) |
| O=C(NCC(c1ccsc1)N1CCCCCC1)c1ccc(C(F)(F)F)cc1 (centres undefined) | 50% | 94% |
| COc1ccc(-c2cc3c(SCC(=O)Nc4cc(C(F)(F)F)ccc4Cl)nccn3n2)cc1 | 6% | 17% (inactive) |
| Cc1ccc(-c2cc3c(SCC(=O)Nc4cc(C(F)(F)F)ccc4Cl)nccn3n2)cc1 | 2% | 29% |
| Cc1cc(NC(=O)c2cccc(C(F)(F)F)c2)n(-c2nc(-c3ccc4c(c3)OCO4)cs2)n1 | 12% | 6% (inactive) |
| CCN(CC)CCNc1ncnc2c1[nH]c1ccc(Cl)cc12 | 99% | 97% |
| CN1CCN(c2ncnc3c2[nH]c2ccc(Cl)cc23)CC1 | 15% | 92% (active) |
| CC1(c2ccccc2)Nc2ccccc2-c2nc3ccccc3n21 (centres undefined) | -10% | 29% |
| COc1ccc(CCN2C(=O)c3[nH]nc(-c4cc(Cl)c(C)cc4O)c3C2c2ccccc2F)cc1 (centres undefined) | 51% | 5% |
| COc1cccc(C2(C)Nc3ccccc3-c3nc4ccccc4n32)c1 (centres undefined) | 10% | 18% (inactive) |
| N#Cc1nc(Cc2cccc3ccccc23)oc1N1CCN(C(c2ccccc2)c2ccccc2)CC1 | 15% | 13% (inactive) |
| CC(C)CNC(=O)c1c(N)n(CCc2ccccc2F)c2nc3ccccc3nc12 | 17% | -11% (inactive) |
| O=C(NNc1cc(N2CCCC2)nc(N2CCCC2)n1)c1ccccc1 | 4% | 35% |
| CC(C)(C)CC(C)(C)NCC(O)COc1ccc(Cl)cc1Cl (centres undefined) | 8% | 81% (active) |
| Cc1cccc(-n2ncc3c(O)nc(-n4nc(C)cc4NC(=O)c4cc5ccccc5o4)nc32)c1 | -3% | -8% (inactive) |
| CCCCCC(=O)N1c2ccccc2N=C2CC(c3ccc(OC)c(OC)c3)CC(O)=C2C1c1ccc(C(F)(F)F)cc1 (centres undefined) | 9% | 23% (inactive) |
| OC1=C2C(=Nc3ccccc3SC2c2ccccc2)c2ccccc21 (centres undefined) | 15% | 16% (inactive) |
